Where “and” joins values, the source holds several entries; their conditions need not be identical. Identical values can stand only once.
System: 922993-354-T-J3-PDC complex spheroid viability
Test: Anticancer human tumor 922993-354-T-J3-PDC patient-derived endometrial carcinoma cell line growth inhibition [POLQ]
Conditions: for viability, T/C: stronger effect = lower value
Protocol: Multicellular complex tumor spheroid response to Polymerase (POL) inhibitors (novobiocin, ART-558, RP6685) in combination with a variety of drugs and investigational agents in selected tumor cell lines
The POL inhibitors (novobiocin, ART-558, and RP6685) were evaluated both individually and in combination with standard of care and investigational anticancer small molecules within a complex spheroid model of solid tumors. . Complex spheroids include a stromal component modeled by human endothelial cells (HUVEC) and fibroblasts modeled by human mesenchymal stem cells (MSCs). The concentration ranges selected for each drug and investigational agent were based upon clinically achievable concentrations if the clinical Cmax of the agent was known.
Compounds. The drugs and investigational agents: novobiocin (NSC847541), ART-558 (NSC835418), RP-6685 (NSC848927), peposertib (NSC802822), ceralasertib (NSC780249), elimusertib (NSC800525), camonsertib (NSC841442), AZD-1390 (NSC803789), olaparib (NSC753686), talazoparib (NSC767125), rucaparib (NSC756644), sotorasib (NSC818433), MRTX-1133 (NSC836407), SN-38 (NSC673596), topotecan (NSC609699), epotoside (NSC141540), doxorubicin (NSC123127), gemcitabine (NSC613327), 5-fluorouracil (NSC19893), paclitaxel (NSC125973), vemurafenib (NSC761431), MSA-2 (NSC828583), SN-011 (NSC837082), adavosertib (NSC754352), prexasertib (NSC758257), carboplatin (NSC241240) and oxaliplatin (NSC266046), were obtained from the National Cancer Institute (NCI) Developmental Therapeutics Program Chemical Repository (21). The FDA-approved anticancer drug set is available from the Developmental Therapeutics Program at https://dtp.cancer.gov/organization/dscb/obtaining/. […] The stock solutions were prepared in dimethyl sulfoxide (DMSO, Sigma-Aldrich, St. Louis, MO, cat. D2650), except for the platinum compounds which were prepared in saline (Quality Biological, Gaithersburg, MD, cat. 114-055-101), at 800-fold the tested concentration and stored at -70 degrees C prior to their use. All drugs and investigational agents were tested over a range starting from a high concentration at or near the clinical Cmax and decreasing in half-log increments. If the clinical Cmax for an agent had not been determined, the highest concentration tested was 10 microM, except for SN-38, which was tested at a high concentration of 1 microM.
Cell Culture. All cells were maintained in an incubator at 37 degrees C and 5% CO2 with 95% humidity. The PDC lines were cultured according to standard operating procedures established by the NCI PDMR (https://pdmr.cancer.gov). Table 3 of the manuscript, lists the cell lines along with the number of the three cell types plated to form the mct-spheroids and media for tumor cell growth. After thawing, all PDC lines, except 997537-175-T-J1-PDC and 415267-285-R-J2-PDC, were cultured in Matrigel-coated flasks prepared with a working solution of 1X Ham's F-12 nutrient mix, without supplementation (Thermo Fisher Scientific, cat. 11765054), 100 U/mL penicillin-streptomycin (Thermo Fisher Scientific, cat. 15140122), and 2.5% Matrigel (Corning Inc., Corning, NY, cat. 354248) for the first three passages. The two PDC lines 997537-175-T-J1-PDC and 415267-285-R-J2-PDC were cultured on uncoated flasks. The 857933-349-R-J2-PDC line was cultured in 6C/Colon 1B media containing advanced DMEM/F-12 (Thermo Fisher Scientific, cat. 12634028), 10 mM HEPES (Thermo Fisher Scientific, cat. 15630080), 1X GlutaMAX supplement (Thermo Fisher Scientific, cat. 35050061), 0.1 mg/mL primocin (InvivoGen, San Diego, CA, cat. ant-pm-2), 10% defined fetal bovine serum, heat inactivated (HyClone Laboratories Inc., Logan, UT, cat. SH30070.03HI), 50% L-WRN conditioned media (ATCC, cat. CRL-3276), 1.25 mM N-Acetyl-L-cysteine (Sigma-Aldrich, cat. A9165), 10 mM nicotinamide (Sigma-Aldrich, cat. N0636), 1X B-27 supplement (Thermo Fisher Scientific, cat. 17504044), 1X N-2 supplement (Thermo Fisher Scientific, cat. […]
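Further: spheroids exposed to the agents for one week.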
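Wherever viability, T/C is given: 100% = DMSO vehicle control wells.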

## Nc1ccn(C2OC(CO)C(O)C2(F)F)c(=O)n1 (stereo not given)
Compound 0.0316 µM
  viability, T/C: 13.5% and 24% and 10.2%
Compound 0.1 µM
  viability, T/C: 9.54% and 19.8% and 10.8%
Compound 0.316 µM
  viability, T/C: 11.1% and 19.8% and 8.64%
Compound 1 µM
  viability, T/C: 12.2% and 17.1% and 9.88%
Compound 3.16 µM
  viability, T/C: 9.68% and 23.8% and 9.1%
Compound 10 µM
  viability, T/C: 8.4% and 22.9% and 7.7%
Curve of compound
  IC50: < 0.0316 µM

## COc1cc(C2c3cc4c(cc3C(OC3OC5COC(C)OC5C(O)C3O)C3COC(=O)C23)OCO4)cc(OC)c1O (stereo not given)
Compound 0.0316 µM
  viability, T/C: 90.2% and 98.8% and 103%
Compound 0.1 µM
  viability, T/C: 95.9% and 102% and 93.7%
Compound 0.316 µM
  viability, T/C: 85.3% and 104% and 92.5%
Compound 1 µM
  viability, T/C: 97.9% and 104% and 97.5%
Compound 3.16 µM
  viability, T/C: 84.4% and 99.5% and 83.6%
Compound 10 µM
  viability, T/C: 42.3% and 81.9% and 37%
Curve of compound
  IC50: 8.15 µM and > 10 µM and 7.3 µM

## CNCc1ccc(-c2[nH]c3cc(F)cc4c3c2CCNC4=O)cc1
Compound 0.0316 µM
  viability, T/C: 94.6% and 105% and 109%
Compound 0.1 µM
  viability, T/C: 96.8% and 100% and 90.3%
Compound 0.316 µM
  viability, T/C: 93.7% and 96% and 96.1%
Compound 1 µM
  viability, T/C: 105% and 97.1% and 96%
Compound 3.16 µM
  viability, T/C: 85.2% and 99.3% and 90.9%
Compound 10 µM
  viability, T/C: 86.2% and 96.2% and 71.4%
Curve of compound
  IC50: > 10 µM

## CC[C@@]1(O)C(=O)OCc2c1cc1n(c2=O)Cc2cc3c(CN(C)C)c(O)ccc3nc2-1
Compound 0.000316 µM
  viability, T/C: 92.2% and 105% and 98.3%
Compound 0.001 µM
  viability, T/C: 103% and 105% and 84%
Compound 0.00316 µM
  viability, T/C: 101% and 97.8% and 99.3%
Compound 0.01 µM
  viability, T/C: 98.3% and 98.7% and 106%
Compound 0.0316 µM
  viability, T/C: 86.9% and 98% and 91.8%
Compound 0.1 µM
  viability, T/C: 54.7% and 87.9% and 41.4%
Curve of compound
  IC50: > 0.1 µM and 0.0827 µM

## COc1cc(C2c3cc4c(cc3C(OC3OC5COC(C)OC5C(O)C3O)C3COC(=O)C23)OCO4)cc(OC)c1O (stereo not given) + Nc1ccc(C#CCN(C(=O)Cc2ncc(C(F)(F)F)cc2C(F)(F)F)c2ccc(F)cc2)nn1
Curve of first compound, second compound 0.0316 µM
  IC50: > 10 µM
Curve of first compound, second compound 0.1 µM
  IC50: > 10 µM
Curve of first compound, second compound 0.316 µM
  IC50: > 10 µM
Curve of first compound, second compound 1 µM
  IC50: > 10 µM
Curve of first compound, second compound 3.16 µM
  IC50: > 10 µM
Curve of first compound, second compound 10 µM
  IC50: 4.39 µM
Second compound 0.0316 µM, first compound 0.0316 µM
  viability, T/C: 108%
Second compound 0.0316 µM, first compound 0.1 µM
  viability, T/C: 106%
Second compound 0.0316 µM, first compound 0.316 µM
  viability, T/C: 101%
Second compound 0.0316 µM, first compound 1 µM
  viability, T/C: 105%
Second compound 0.0316 µM, first compound 3.16 µM
  viability, T/C: 90.9%
Second compound 0.0316 µM, first compound 10 µM
  viability, T/C: 81%
Second compound 0.1 µM, first compound 0.0316 µM
  viability, T/C: 103%
Second compound 0.1 µM, first compound 0.1 µM
  viability, T/C: 102%
Second compound 0.1 µM, first compound 0.316 µM
  viability, T/C: 104%
Second compound 0.1 µM, first compound 1 µM
  viability, T/C: 98.2%
Second compound 0.1 µM, first compound 3.16 µM
  viability, T/C: 97.4%
Second compound 0.1 µM, first compound 10 µM
  viability, T/C: 71.4%
Second compound 0.316 µM, first compound 0.0316 µM
  viability, T/C: 101%
Second compound 0.316 µM, first compound 0.1 µM
  viability, T/C: 105%
Second compound 0.316 µM, first compound 0.316 µM
  viability, T/C: 100%
Second compound 0.316 µM, first compound 1 µM
  viability, T/C: 104%
Second compound 0.316 µM, first compound 3.16 µM
  viability, T/C: 94.2%
Second compound 0.316 µM, first compound 10 µM
  viability, T/C: 76%
Second compound 1 µM, first compound 0.0316 µM
  viability, T/C: 105%
Second compound 1 µM, first compound 0.1 µM
  viability, T/C: 103%
Second compound 1 µM, first compound 0.316 µM
  viability, T/C: 103%
Second compound 1 µM, first compound 1 µM
  viability, T/C: 100%
Second compound 1 µM, first compound 3.16 µM
  viability, T/C: 96.1%
Second compound 1 µM, first compound 10 µM
  viability, T/C: 77%
Second compound 3.16 µM, first compound 0.0316 µM
  viability, T/C: 103%
Second compound 3.16 µM, first compound 0.1 µM
  viability, T/C: 97.2%
Second compound 3.16 µM, first compound 0.316 µM
  viability, T/C: 98%
Second compound 3.16 µM, first compound 1 µM
  viability, T/C: 95.6%
Second compound 3.16 µM, first compound 3.16 µM
  viability, T/C: 88%
Second compound 3.16 µM, first compound 10 µM
  viability, T/C: 67.6%
Second compound 10 µM, first compound 0.0316 µM
  viability, T/C: 100%
Second compound 10 µM, first compound 0.1 µM
  viability, T/C: 90.5%
Second compound 10 µM, first compound 0.316 µM
  viability, T/C: 91.2%
Second compound 10 µM, first compound 1 µM
  viability, T/C: 75.1%
Second compound 10 µM, first compound 3.16 µM
  viability, T/C: 62.2%
Second compound 10 µM, first compound 10 µM
  viability, T/C: 25.3%

— PubChem BioAssay AID1963830 (Molecular Pharmacology Branch, DTP, NCI, 2024)
